The text below walks through data of ChEMBL document CHEMBL3132778, “Structureactivity relationships of tetrahydrocarbazole derivatives as antifungal lead compounds” (Medchemcomm, 2013).

One experiment relates to Candida albicans. Briefly: Antifungal activity against Candida albicans after 24 hrs by serial dilution method. The class given is functional.
The test system of the next experiment is Cryptococcus neoformans. Description: Antifungal activity against Cryptococcus neoformans after 72 hrs by serial dilution method. The class given is functional.
The test system of the next experiment is Nannizzia gypsea. Briefly: Antifungal activity against Microsporum gypseum by serial dilution method. The class given is functional.
A further experiment deals with Candida tropicalis. Briefly: Antifungal activity against Candida tropicalis after 24 hrs by serial dilution method. The class given is functional.
In a further experiment the test system is Aspergillus fumigatus. Description: Antifungal activity against Aspergillus fumigatus after 7 days by serial dilution method. The class given is functional. The settings on record: 168 h.
Experiment [1] can be described thus: Inhibition of Saccharomyces cerevisiae NMT.
Another experiment has as its system Candida parapsilosis. Briefly: Antifungal activity against Candida parapsilosis after 24 hrs by serial dilution method. The conditions noted are these: Lodderomyces parapsilosis. The class given is functional.
Another experiment concerns Trichophyton rubrum. Description: Antifungal activity against Trichophyton rubrum by serial dilution method. The class given is functional.
The next experiment has as its system Kluyveromyces marxianus. Description: Antifungal activity against Candida kefyr after 24 hrs by serial dilution method. The class given is functional.

pIC50: −log10 of the molar value. Converted amounts (≈) assume the structure as drawn.

Broadly, the MIC80 is an inhibitory concentration at the 80% level, which refers to growth in some studies and to a panel of isolates in others. Lower therefore signals greater potency. The term pIC50 denotes the negative decadic logarithm of the IC50, by convention in mol/L. On to `Cc1ccc2c(c1)c1c(n2C[C@@H](O)CNC2CCCCC2)CCCC1`, for which the MIC80 against Candida albicans amounted to 64 µg/mL (≈ 188 µM); in the experiment with Cryptococcus neoformans it was 16 µg/mL (≈ 47 µM); in the experiment on Nannizzia gypsea, 16 µg/mL (≈ 47 µM); in the experiment on Candida tropicalis, 64 µg/mL (≈ 188 µM); in the experiment with Aspergillus fumigatus, 64 µg/mL (≈ 188 µM); in the experiment on Candida parapsilosis it was 16 µg/mL (≈ 47 µM). Also, the MIC80 stood at 16 µg/mL (≈ 47 µM) in the experiment on Trichophyton rubrum and 64 µg/mL (≈ 188 µM) against Kluyveromyces marxianus. In [1], this compound showed a pIC50 of 7.62.
As to `OC(Cn1cncn1)(Cn1cncn1)c1ccc(F)cc1F` [FLUCONAZOLE], the MIC80 in the experiment with Candida albicans is 0.5 µg/mL (≈ 1.63 µM); against Cryptococcus neoformans it was 1 µg/mL (≈ 3.27 µM); against Nannizzia gypsea, 1 µg/mL (≈ 3.27 µM); with Candida tropicalis, 2 µg/mL (≈ 6.53 µM); with Aspergillus fumigatus, above 64 µg/mL; with Candida parapsilosis it was 4 µg/mL (≈ 13.1 µM). The MIC80 against Trichophyton rubrum came to 1 µg/mL (≈ 3.27 µM); with Kluyveromyces marxianus, 4 µg/mL (≈ 13.1 µM).
